From paper PMC5731860, “Novel allylated monocarbonyl analogs of curcumin induce mitotic arrest and apoptosis by reactive oxygen species-mediated endoplasmic reticulum stress and inhibition of STAT3” (Oncotarget, 2017) come the findings set out here.

Entries after “also recorded” stand apart in the source; their conditions may differ. A value given as a limit tells only on which side of the number the result lay.

One data set has as its system SGC-7901 cells. The experiment in a line: Malondialdehyde (MDA) and total GSH in cancer cells. The class given is cell-based, human. The method, then:
The treated cells were harvested with RIPA buffer at 4°C. Cell lysates were then centrifuged at 12,000 × g for 10 min at 4°C to collect the supernatant. Protein content was determined by the Bradford protein assay kit. Equal amounts of proteins were used for malondialdehyde (MDA) and total GSH assay (Beyotime Institute of Biotechnology, Nantong, China). MDA and total GSH levels were detected by measuring absorbance respectively at 532 nm and 412 nm using a multimode microplate reader (Molecular Devices, SpectraMax 190, USA

Data set [1] can be described thus: Body weight of xenograft mice. The data set is classed as in vivo. Conditions: 0–12 days, ip once a day; CA10 10 and 20 mg/kg, curcumin 50 mg/kg. The source says:
(§1) All animal experiments complied with the Wenzhou Medical University's Policy on the Care and Use of Laboratory Animals. Protocols for animal studies were approved by the Wenzhou Medical University Animal Policy and Welfare Committee (Approved documents: 2016/201). Athymic BALB/c nu/nu female mice weighing 20–22 g (6 weeks old) were purchased from Vital River Laboratories (Beijing, China). Animals were housed (6 animals/gage) at a constant room temperature with a 12/12-hr light/dark cycle and fed a standard rodent diet and water ad libitum. SGC-7901 cells were injected subcutaneously into the right flank of each mice at 1 × 10^6 cells in 0.1 mL PBS. Once tumors reached a volume of 100–200 mm^3, mice were randomly divided into 4 groups. These groups included mice treated with 10 mg/kg CA10, mice treated with 20 mg/kg CA10, mice treated 50 mg/kg curcumin, and control mice receiving vehicle alone. All treatments were carried out with intraperitoneal injections. The body weight and tumor volumes were monitored and determined by measuring length (l) and width (w) and calculated as tumor volume (V = 0.5 × l × w2) at the indicated time points. At the end of treatment period, mice were sacrificed and the tumors were removed and weighed for histological analyses and proteins measurement studies.

For the next data set, the system named is HT-29. The experiment in a line: MTT assay, growth inhibition. The class given is cell-based. The following applies: Homo sapiens, HT-29, 24 h. How it is done:
(§2) First, we investigated whether allylated MAC alter the viability or have cytotoxic effects on cells in culture. We have performed MTT tetrazolium reduction assay following exposure of cancer cells (gastric cancer, BGC823 and SGC-7901; colon cancer, HT-29, HCT-116 and SW-480) and normal gastric epithelial cells (GES-1) to all 20 allylated MAC at a concentration of 20 μM for 24 h. […] In addition, we also found notable solubility and stability profile of these compounds (Supplementary Figure 1).
(§3) Cells were plated at a density of 8 × 10^3 cells/well in 96-well plates and allowed to attach overnight. Stock solutions of allylated MAC and curcumin were prepared in DMSO and diluted in culture media to obtain appropriate concentration. Cells were treated for 24 h and 48 h, following which, 20 μL of 5 mg/ml MTT reagent was added. Purple formazan product was dissolved by the addition of 100 μL DMSO to each well. Absorbance was then monitored at 490 nm using a plate reader (Molecular Device Spectra MAX190, USA). Percentage of cytotoxicity was determined using the following formula: Growth inhibition (%) = (OD of control−OD of test/OD of control×100%).
Background: Tetrazolium assays rely on reduction of a dye to a coloured formazan, in cell work by metabolically active cells.

A short description of data set [2]: H&E histology of vital organs of xenograft mice. The following applies: ip once a day for 12 days. The data set is classed as in vivo. How it is done: Portions of heart, liver, kidney and tumor tissues from mice were fixed in 4% paraformaldehyde solution for 1 week at room temperature. Specimens were then dehydrated by passing through graded ethanol, cleared in xylene, and embedded in paraffin wax. Tissue blocks were sectioned at 5 μm thickness and used for H&E and immunohistochemical staining. Tumor tissue sections were stained with indicated primary antibodies for overnight followed by secondary antibodies for 2 h. Diaminobenzidine (DAB) was used for detection. The slides were counterstained with hematoxylin for 30 seconds and mounted. For histologic analysis of heart, kidney and liver tissue sections, we performed routine H&E staining and viewed the sections under a light microscope (20× magnification, Nikon, Japan).

The subject of data set [3] is SGC-7901. The experiment in a line: Clonogenic (colony formation) assay. Conditions: SGC-7901, 2.5, 5 or 10 μM for 24 h, then 7 days culture. The class given is cell-based, human. How it is done:
(§4) The BGC-823 and SGC-7901 cells were seeded at 1000 cells/well in 6 well plates and allowed to attach overnight. Cells were then exposed to various concentrations (2.5, 5 and 10 μM) of CA10 for 24 h in presence and absence of NAC (5 mM). Following treatments, media was changed to fresh culture media and cultures were followed for 7 days. The experiment was terminated by washing the colonies with PBS and fixation with […] at room temperature for 10 min. Colonies were then stained with Crystal violet for 10 min and counted.

The test system of data set [4] is BGC-823. The experiment in a line: Clonogenic (colony formation) assay. The class given is cell-based, human. The following applies: BGC-823, 2.5, 5 or 10 μM for 24 h, then 7 days culture. How it is done: as §4
The test system of another data set is SW-480. The experiment in a line: MTT assay, growth inhibition. The class given is cell-based, human. The following applies: Homo sapiens, SW480, 24 h. How it is done: as §2, §3
The test system of another data set is HCT-116. The experiment in a line: MTT assay, growth inhibition. The class given is cell-based, human. The method, then: as §2, §3
The next data set concerns p-STAT3. The experiment in a line: Western blot of p-STAT3. The class given is cell-based, human. The following applies: SGC-7901, western blot, 1, 3, 6 and 12 h; total STAT3 not changed. How it is done: (§5) Protein samples were prepared from cells following treatments or tumor tissues. Protein concentration was determined by Bradford protein assay kit (Bio-Rad, Hercules, CA). Samples were separated on precast 8%-12% SDS polyacrylamide gels. After electrophoresis, proteins were transferred to poly vinylidene difluoride (PVDF) membrane. The membranes were blocked with 5% non-fat milk in tris-buffered saline containing 0.1% Tween 20 (TBST) for 90 min at room temperature, then primary antibodies (1:1000) in TBST were added and membranes incubated overnight at 4°C. After washing with TBST, horseradish peroxidase (HRP)-conjugated secondary antibodies (1:3000) were added for 1 hour at room temperature. After additional washing with TBST, enhanced chemiluminescence detection system (ECL, GE Healthcare) was used. Membranes were probed for GAPDH as a loading control. The density of the immunoreactive bands was analyzed using Image J (National Institute of Health, MD).

The next data set deals with GES-1. The experiment in a line: MTT assay, growth inhibition in normal gastric epithelial cells. The data set is classed as cell-based, human. How it is done: as §2, §3
Data set [5] has as its system SGC-7901 xenograft tumors. The experiment in a line: In vivo mouse xenograft model, tumor growth. Also noted: species or system mice. The following applies: for tumor weight and volume: ip once a day for 12 days, CA10 10 and 20 mg/kg, curcumin 50 mg/kg.
Description: as §1

Data set [6] relates to SGC-7901. The experiment in a line: MTT assay, growth inhibition / cell viability. The data set is classed as cell-based. The following applies: Homo sapiens. The method, then: as §2, §3
Data set [7] relates to BGC-823. The experiment in a line: MTT assay, growth inhibition / cell viability. The class given is cell-based. Conditions: Homo sapiens. The method, then:
as §2, §3

In data set [8] the test system is p-PERK, p-eIF2α, ATF-4 and CHOP. The experiment in a line: Western blot of ER stress proteins. Conditions: SGC-7901, 10 μM, 1, 3, 6 and 12 h. The class given is cell-based, human. The method, then: as §5
Background: A western blot detects proteins with antibodies after separation by electrophoresis.

One may read the inhibition as how much of the control response was suppressed. A high value points to a strong effect. For orientation: IC50 means the concentration at which inhibition is half-maximal. A low value points to higher potency.

`C=CCc1cc(C=C2CCC(=Cc3ccc(O)c(CC=C)c3)C2=O)ccc1O` [CA10]: the “level of total GSH” value with SGC-7901 cells (compared to control) is “no significant changes; also recorded: marginally decreased”. Further, the MDA level entry with SGC-7901 cells (enhanced at 20 μM) is given as “increased”. Besides, the “body weight of mice” value in data set [1] is “no change”. The inhibition at 20 µM is 77.2 ± 4.86% in the data set on HT-29; 77.4 ± 7.84% with SW-480; 70% in the data set on HCT-116 (Homo sapiens, HCT-116, 24 h); 23.4 ± 7.48% in the data set on GES-1 (Homo sapiens, GES1, 24 h, normal gastric epithelial cells); above 80% in the data set with SGC-7901 [6] (SGC-7901, 24 h, 20 μM, 24 h); 67.5 ± 1.54% in the data set on BGC-823 [7] (BGC-823, 20 μM, 24 h). The “toxicity in vital organs (heart, liver, kidney), H&E” value in data set [2] is given as “without overt toxicity”. For the same compound, the number of colonies result in the data set on SGC-7901 [3] and in the data set on BGC-823 [4] was “reduced number” in each case. For the same compound, the “% Of growth inhibition HCT-116” value in the data set with HCT-116 (20 μM, 24 h) is reported as 75.37 ± 4.52%. In the data set with p-STAT3, the “protein levels of p-STAT3” value is listed as “decreased”. The “inhibition of the normal epithelial cells (selective cytotoxicity in cancer cell lines), in words” value in the data set with GES-1 (20 μM, 24 h) is listed as “minimal inhibition”. In [5] (20 mg/kg ip once a day for 12 days), the “inhibition effect on tumor growth compared to CA10 10 mg/kg or curcumin 50 mg/kg” value is listed as “greater inhibition effect”. In data set [5], the “tumor weight and volume” value is recorded as “significant reduction”. The IC50 with SGC-7901 [6] (SGC-7901, 24 h) is 15 ± 1.72 µM; with SGC-7901 [6] (SGC-7901, 48 h), 6.91 ± 0.43 µM; in the data set on BGC-823 [7] (BGC-823, 24 h), 13 ± 2.48 µM; with BGC-823 [7] (BGC-823, 48 h) it was 7.14 ± 1.69 µM. In data set [8], the “expression of ER specific proteins (p-PERK, p-eIF2α, ATF-4, CHOP)” value was “increased expression”.
As to `COc1cc(/C=C/C(=O)CC(=O)/C=C/c2ccc(O)c(OC)c2)ccc1O` [curcumin], the “body weight of mice” value in [1] was “no change”. The “tumor weight and volume” value in data set [5] was “significant reduction”. The concentration for half-maximal inhibition (IC50) in the data set with SGC-7901 [6] (SGC-7901, 24 h) amounted to 62.2 ± 2.08 µM; in the data set with SGC-7901 [6] (SGC-7901, 48 h), 36.9 ± 3.17 µM; with BGC-823 [7] (BGC-823, 24 h), 54.4 ± 3.92 µM; in the data set on BGC-823 [7] (BGC-823, 48 h) it was 38.2 ± 1.02 µM.
